Test results taken from patent publication US7618945B2, “Heteroaryl peptidomimetics as thrombin receptor antagonists” (Janssen Pharmaceutica, N.V., priority 2002, dated 2009).

Assays:
[1] = molecular target: T1, thrombin receptor (PAR-1) (Homo sapiens, UniProt P25116); assay: In vitro thrombin receptor binding assay (CHRF membranes); settings: tritiated 721-40 (Ser-pFPhe-Har-Leu-Har-Lys-Tyr-NH2), 30 min incubation
T1 construct: CHRF membranes (Jones, Biochim. Biophys. Acta 1992, 1136, 272) are thawed from −70° C; endogenous in cells; host or cells: CHRF cell membranes (CHRF-288 megakaryoblastic line, per the cited Jones 1992)
T1 sequence (P25116 22-425): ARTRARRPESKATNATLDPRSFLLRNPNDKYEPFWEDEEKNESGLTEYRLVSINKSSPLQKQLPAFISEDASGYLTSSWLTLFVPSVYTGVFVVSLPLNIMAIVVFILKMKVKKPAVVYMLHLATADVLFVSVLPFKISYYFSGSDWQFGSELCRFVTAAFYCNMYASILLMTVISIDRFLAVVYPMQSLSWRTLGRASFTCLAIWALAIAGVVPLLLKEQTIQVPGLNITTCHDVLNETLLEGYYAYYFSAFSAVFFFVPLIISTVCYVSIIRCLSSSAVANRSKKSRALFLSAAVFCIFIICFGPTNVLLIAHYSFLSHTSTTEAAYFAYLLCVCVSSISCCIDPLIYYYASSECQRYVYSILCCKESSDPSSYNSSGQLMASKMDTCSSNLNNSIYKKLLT
Experimental: In Vitro Thrombin Receptor Binding Assay
CHRF membranes (Jones, Biochim. Biophys. Acta 1992, 1136, 272) are thawed from −70° C., centrifuged at maximum speed for 5 min, washed twice with binding buffer (50 mM HEPES containing 5 mM MgCl2 and 0.1% BSA), and re-suspended in binding buffer ([…]). 100 μL of membranes are added to the 24-Wallac plates and delivered to the Tomtech apparatus. In a typical experiment, 6 μL of samples (from a 125 μg/mL intermediary plate, 20% DMSO) and 44 μL buffer are delivered to the plates (final conc. of compounds is 3.7 μg/mL, 0.6% DMSO). Similarly, 6 μL 20% DMSO and 44 μL buffer are delivered to both column 1 (NSB) and column 12 (TB). 10 μL Ser-pFPhe-Har-Leu-Har-Lys-Tyr-NH2 (721-40; 500 μM in deionized water) is added to column 1. 50 μL tritiated 721-40 (specific activity 46 Ci/mmol) is added to all the wells. The plates are mixed well for 20 seconds, incubated for 30 min, and then harvested with 10 mM HEPES/138 mM NaCl using the Skatron harvester. The filters (GF/C Brandel FPXLR 296) are presoaked 3 h in 0.5% polyethylenimine in HEPES/0.1M N-acetylglucosamine) are set in saran wrap and dried for 3 min in the microwave, and placed in sample bags (Wallac 1450-432). 4.5 mL scintillation fluid (Wallac, Betaplate Scint 1205-440) is added. The bags are sealed, placed in filter cassettes (Wallac 1450-104), and analyzed on the microbeta counter.
(§1) Table 3 contains IC50 values (μM) of the compounds against platelet aggregation stimulated by thrombin and IC50 values (μM) in a thrombin receptor (PAR-1) binding assay.

gel-filtered platelets [2] = assay: Inhibition of SFLLRN-NH2-induced gel-filtered platelet aggregation; assay type: cell-based; settings: aggregation initiated by SFLLRN-NH2 (2 μM), OD 650 at 0 and 5 min
Experimental: (§2) In Vitro Inhibition Of Thrombin- and SFLLRN-NH2-Induced Gel-Filtered Platelet Aggregation Assay
(§3) Platelet Rich Plasma concentrate (Biological Specialties, Inc) is gel filtered (Sepharose 2B, Pharmacia) in Tyrode's buffer (140 mM NaCl, 2.7 mM KCl, 12 mM NaHCO3, 0.76 mM Na2HPO4, 5.5 mM dextrose, 5.0 mM Hepes, and 2 mg/ml BSA @ pH 7.4). The gel-filtered platelets are diluted with Tyrode's buffer (143,000 platelets/μl, final platelet count per well), compound solution in buffer, and 2 mM CaCl2 in a 96 well plate. Platelet aggregation is initiated by the addition of human α-thrombin (American Diagnostica, 0.113 nM-0.187 nM) or SFLLRN-NH2 (2 μM) shown to achieve 80% aggregation (0.015-0.025 NIH U/ml, 0.113 nM-0.187 nM). The assay plate is stirred constantly. Platelet aggregation is monitored by intermittently placing the plate in a microplate reader (Molecular Devices) to read optical density ([…], ΔSOFT) at 0 and 5 minutes after the thrombin addition. Aggregation was calculated to be the decrease in optical density between the time 0 and 5 minute measurements. All samples were tested in duplicate wells on the same plate.

gel-filtered platelets [3] = assay: Inhibition of thrombin-induced gel-filtered platelet aggregation; assay type: cell-based; settings: aggregation initiated by human α-thrombin 0.113 nM-0.187 nM, OD 650 at 0 and 5 min
Experimental: as §2, §3, §1

N=C(N)NCCCC(NC(=O)Cc1ccccc1)C(=O)NC(Cc1ccccc1)C(=O)Nc1ccc2c(c1)c(CN1CCCC1)cn2Cc1ccc(F)cc1 (centres unmarked) [Compound 17, 5-Guanidino-2-phenylacetylamino-pentanoic acid {1-[1-(4-fluoro-benzyl)-3-pyrrolidin-1-ylmethyl-1H-indol-5-ylcarbamoyl]-2-phenyl-ethyl}-amide]
IC50 [1]: 10.4 µM | IC50 (gel-filtered platelets [2]): 9.8 µM | IC50 (gel-filtered platelets [3]): 44.5 µM

CC(=O)N[C@@H](CCCNC(=N)N)C(=O)N[C@@H](CC1CCCCC1)C(=O)Nc1ccc2c(CN3CCCC3)cn(Cc3ccc(F)cc3)c2c1 [Compound 21]
IC50 [1]: 10.7 µM | IC50 (gel-filtered platelets [2]; Platelet): 3.2 µM | IC50 (gel-filtered platelets [3]; Platelet): 4.7 µM

N=C(N)NCCC[C@H](NC(=O)OCc1ccccc1)C(=O)N[C@@H](Cc1ccccc1)C(=O)Nc1ccc2c(CN3CCCC3)cn(Cc3ccc(F)cc3)c2c1 [Compound 19]
IC50 [1]: 2.4 µM | IC50 (gel-filtered platelets [2]; Platelet): 11.1 µM | IC50 (gel-filtered platelets [3]; Platelet): 18.7 µM

CCCNCc1cn(Cc2ccc(F)cc2)c2ccc(NC(=O)[C@@H](Cc3ccccc3)NC(=O)[C@@H](CCCNC(=N)N)NC(=O)OC3c4ccccc4-c4ccccc43)cc12 [Compound 1]
IC50 (gel-filtered platelets [2]; Platelet): 43.7 µM | IC50 (gel-filtered platelets [3]; Platelet): 51.6 µM
